In US20230012368A1 (Hoffmann-La Roche Inc., priority 2018, published 2023):
Structures can show the parent of a compound that is named as a salt.

What follows are molecules tested on Acinetobacter baumannii ATCC 17978 (assay: Antimicrobial susceptibility testing: 90% growth inhibitory concentration (IC90) determination). Conditions: 90% growth inhibitory concentration; Acinetobacter baumannii ATCC17978; Iso-Sensitest broth, OD 600 nm over 16h; read-out: ATCC17978 IC90.
Type: cell-based
Experimental: Antimicrobial Susceptibility Testing:
90% Growth Inhibitory Concentration (IC90) Determination
The in vitro antimicrobial activity of the compounds was determined according to the following procedure:
The assay used a 10-points Iso-Sensitest broth medium to measure quantitatively the in vitro activity of the compounds against Acinetobacter baumannii ATCC 17978 and Acinetobacter baumannii ATCC 17961.
Stock compounds in DMSO were serially twofold diluted (e.g. range from 50 to 0.097 μM final concentration) in 384 wells microtiter plates and inoculated with 49 μl the bacterial suspension in Iso-Sensitest medium to have a final cell concentration of ˜5×10^(5) CFU/ml in a final volume/well of 50 ul/well. Microtiter plates were incubated at 35±2° C.
Bacterial cell growth was determined with the measurement of optical density at λ=600 nm each 20 minutes over a time course of 16h. Growth inhibition was calculated during the logarithmic growth of the bacterial cells with determination of the concentration inhibiting 50% (IC50) and 90% (IC90) of the growth.
Table 1 provides the 90% growth inhibitory concentrations (IC90) in micromoles per liter of the compounds of present invention obtained against the strain Acinetobacter baumannii ATCC17978 and Acinetobacter baumannii ATCC17961.
Molecule `COc1ccc(-c2cnc3c(Nc4ccc(C(=O)NCCCN)c(C(F)F)c4)nccn23)c(F)c1F` [Example 165, N-(3-aminopropyl)-4-[[3-(2,3-difluoro-4-methoxy-phenyl)imidazo[1,2-a]pyrazin-8-yl]amino]-2-(difluoromethyl)benzamide; formic acid] has an IC90 of 530 nM. Molecule `COc1ccc(-c2cnc3c(Nc4ccc(C(=O)N(C)CCN5CCN(CC(F)F)CC5)c(C)c4)nccn23)cc1F` [Example 113, N-[2-[4-(2,2-difluoroethyl)piperazin-1-yl]ethyl]-4-[[3-(3-fluoro-4-methoxy-phenyl)imidazo[1,2-a]pyrazin-8-yl]amino]-N,2-dimethyl-benzamide; formic acid] has an IC90 of 2000 nM. With `CCc1cc(Nc2nccn3c(-c4ccc(Cl)cc4F)cnc23)ccc1C(=O)NCCCN` [Example 283, N-(3-aminopropyl)-4-[[3-(4-chloro-2-fluorophenyl)imidazo[1,2-a]pyrazin-8-yl]amino]-2-ethylbenzamide; hydrochloride] the IC90 was 2000 nM. In the case of `CCc1cc(Nc2nccn3c(-c4ccc(OC)c(F)c4F)cnc23)ccc1C(=O)NCCNC(=O)[C@@H](N)CCCNC(=N)NCCCC(=O)O` [Example 157, (S)-7-amino-1-(4-((3-(2,3-difluoro-4-methoxyphenyl)imidazo[1,2-a]pyrazin-8-yl)amino)-2-ethylphenyl)-12-imino-1,6-dioxo-2,5,11,13-tetraazaheptadecan-17-oic acid trihydrochloride], the IC90 is reported as 320 nM. For `COc1ccc(-c2cnc3c(Nc4ccc(C(=O)NCC5CCS(=O)(=O)CC5)c(Cl)c4)nccn23)c(F)c1F` [Example 106, 2-chloro-4-[[3-(2,3-difluoro-4-methoxy-phenyl)imidazo[1,2-a]pyrazin-8-yl]amino]-N-[(1,1-dioxothian-4-yl)methyl]benzamide; 2,2,2-trifluoroacetic acid], the IC90 was 140 nM.

Same assay, conditions: Acinetobacter baumannii, ATCC17978, 16 h, 90% growth inhibitory concentration; Acinetobacter baumannii ATCC17978; Iso-Sensitest broth, OD 600 nm over 16h; read-out: ATCC17978 IC90
`CCc1cc(Nc2nccn3c(-c4ccc(O)c(F)c4F)cnc23)ccc1C(=O)NCCCN` [Example 289, N-(3-aminopropyl)-4-[[3-(2,3-difluoro-4-hydroxyphenyl)imidazo[1,2-a]pyrazin-8-yl]amino]-2-ethylbenzamide;hydrochloride] was tested, and the IC90 was 4600 nM. With `CCc1cc(Nc2nccn3c(-c4ccc(Oc5ncccn5)c(F)c4F)cnc23)ccc1C(=O)NCC1CCNCC1` [Example 548, 4-((3-(2,3-difluoro-4-(pyrimidin-2-yloxy)phenyl)imidazo[1,2-a]pyrazin-8-yl)amino)-2-ethyl-N-(piperidin-4-ylmethyl)benzamide formate] the IC90 was 470 nM. `CCc1cc(Nc2nccn3c(-c4ccc(OCC#CCO)c(F)c4F)cnc23)ccc1C(=O)NCCCN` [Example 419, N-(3-aminopropyl)-4-[[3-[2,3-difluoro-4-(4-hydroxybut-2-ynoxy)phenyl]imidazo[1,2-a]pyrazin-8-yl]amino]-2-ethyl-benzamide] was tested, and the IC90 was 670 nM. With `COc1ccc(-c2cnc3c(Nc4ccc(C(=O)N(C)CC(=O)N5CCNC(C(=O)O)C5)c(C)c4)nccn23)cc1F` (stereo not shown) [Example 173, 4-[2-[[4-[[3-(3-fluoro-4-methoxyphenyl)imidazo[1,2-a]pyrazin-8-yl]amino]-2-methylbenzoyl]-methylamino]acetyl]piperazine-2-carboxylic acid;hydrochloride] the IC90 was 8600 nM. `CCc1cc(Nc2nccn3c(-c4ccc(OC)c(F)c4F)cnc23)ccc1C(=O)NC(C)(C)CNC(=O)[C@@H](N)CCCCN` [Example 326, N-[1-[[(2S)-2,6-diaminohexanoyl]amino]-2-methylpropan-2-yl]-4-[[3-(2,3-difluoro-4-methoxyphenyl)imidazo[1,2-a]pyrazin-8-yl]amino]-2-ethylbenzamide] showed an IC90 of 190 nM. `CCc1cc(Nc2nccn3c(-c4ccc(OC)c(F)c4F)cnc23)ccc1C(=O)NCC1CCN(Cc2cccnc2)CC1` [Example 554, 4-[[3-(2,3-difluoro-4-methoxy-phenyl)imidazo[1,2-a]pyrazin-8-yl]amino]-2-ethyl-N-[[1-(3-pyridylmethyl)-4-piperidyl]methyl]benzamide] was tested, and the IC90 was 170 nM. For `COc1ccc(-c2cnc3c(Nc4ccc(C(=O)N(C)CC(=O)N5CCC(CN(C)C)C5)c(C)c4)nccn23)cc1F` (stereo not shown) [Example 9, N-[2-[3-[(dimethylamino)methyl]pyrrolidin-1-yl]-2-oxo-ethyl]-4-[[3-(3-fluoro-4-methoxy-phenyl)imidazo[1,2-a]pyrazin-8-yl]amino]-N,2-dimethyl-benzamide], the IC90 was 840 nM. In the case of `CCc1cc(Nc2nccn3c(-c4ccc(Oc5ccccn5)c(F)c4F)cnc23)ccc1C(=O)NCCNC(=O)[C@H](N)CCNC(=N)N` [Example 426, N-[2-[[(2R)-2-amino-4-guanidino-butanoyl]amino]ethyl]-4-[[3-[2,3-difluoro-4-(2-pyridyloxy)phenyl]imidazo [1,2-a]pyrazin-8-yl]amino]-2-ethyl-benzamide; formic acid], the IC90 is reported as 820 nM. `CNC(=O)c1ccc(Nc2nccn3c(-c4ccc(OC(F)F)cc4)cnc23)cc1CO` [Example 225, 4-[[3-[4-(difluoromethoxy)phenyl]im-idazo[1,2-a]pyrazin-8-yl]amino]-2-(hydroxymethyl)-N-methylbenzamide] showed an IC90 of 1100 nM. `Cc1cc(Nc2nccn3c(-c4ccc(OC(F)F)cc4)cnc23)ccc1C(=O)NCCCCCN1CCOCC1` [Example 25, 4-((3-(4-(difluoromethoxy)phenyl)imidazo[1,2-a]pyrazin-8-yl)amino)-2-methyl-N-(5-morpholinopentyl) benzamide] gave an IC90 of 160 nM. `COc1ccc(-c2cnc3c(Nc4ccc(C(=O)NCCC5(O)CCNCC5)c(C)c4)nccn23)cc1F` [Example 281, 4-[[3-(3-fluoro-4-methoxyphenyl)imidazo[1,2-a]pyrazin-8-yl]amino]-N-[2-(4-hydroxypiperidin-4-yl)ethyl]-2-methylbenzamide;2,2,2-trifluoroacetic acid] gave an IC90 of 930 nM. `CCc1cc(Nc2nccn3c(-c4ccc(OC)c(F)c4F)cnc23)ccc1C(=O)NCC1CCN(CC(=O)NCC2CCNC2)CC1` (stereo not shown) [Example 551, 4-((3-(2,3-difluoro-4-methoxyphenyl)imidazo[1,2-a]pyrazin-8-yl)amino)-2-ethyl-N-((1-(2-oxo-2-((pyrrolidin-3-ylmethyl)amino)ethyl)piperi-din-4-yl)methyl)benzamide bis(2,2,2-trifluoroacetate)] showed an IC90 of 77 nM. `COc1ccc(-c2cnc3c(Nc4ccc(C(=O)NCCNC(=O)[C@@H]5C[C@](C)(O)CN5)c(C)c4)nccn23)c(F)c1F` [Example 372, (2S,4S)-N-[2-[[4-[[3-(2,3-difluoro-4-methoxyphenyl)imidazo[1,2-a]pyrazin-8-yl]amino]-2-methylbenzoyl]amino]ethyl]-4-hydroxy-4-methylpyrrolidine-2-carboxamide] gave an IC90 of 150 nM. `CCc1cc(Nc2nccn3c(-c4ccc(OCC#N)c(F)c4F)cnc23)ccc1C(=O)NCCNC(=O)CCN` [Example 137, N-[2-(3-aminopropanoyl-amino)ethyl]-4-[[3-[4-(cyanomethoxy)-2,3-difluoro-phenyl]imidazo[1,2-a]pyrazin-8-yl]amino]-2-ethyl-benzamide formate] gave an IC90 of 70 nM. `CCc1cc(Nc2nccn3c(-c4ccc(Oc5ccc(OC)cn5)c(F)c4F)cnc23)ccc1C(=O)NCCNC(=O)[C@H](N)CCCNC(=N)N` [Example 447, N-[2-[[(2R)-2-amino-5-guanidino-pentanoyl]amino]ethyl]-4-[[3-[2,3-difluoro-4-[(5-methoxy-2-pyridyl)oxy]phenyl]imidazo [1,2-a]pyrazin-8-yl]amino]-2-ethyl-benzamide; formic acid] gave an IC90 of 630 nM. For `CCc1cc(Nc2nccn3c(-c4ccc(OC)c(F)c4F)cnc23)ccc1C(=O)NCCCNC(=O)NCCN` [Example 119, N-[3-(2-aminoethylcarbamoylamino)propyl]-4-[[3-(2,3-difluoro-4-methoxy-phenyl)imidazo[1,2-a]pyrazin-8-yl]amino]-2-ethyl-benzamide], the IC90 was 180 nM. In the case of `Cc1cc(Nc2nccn3c(-c4ccc(OC(F)F)cc4)cnc23)ccc1C(=O)N(C)CC(=O)N1CCOCC1` [Example 279, 4-[[3-[4-(difluoromethoxy)phenyl]im-idazo[1,2-a]pyrazin-8-yl]amino]-N,2-dimethyl-N-(2-morpholin-4-yl-2-oxoethyl)benzamide], the IC90 is reported as 3400 nM. Work on `COc1ccc(-c2cnc3c(Nc4ccc(C(=O)NCC5CCSCC5)c(Cl)c4)nccn23)c(F)c1F` [Example 42, 2-chloro-4-[[3-(2,3-difluoro-4-methoxy-phenyl)imidazo[1,2-a]pyrazin-8-yl]amino]-N-(tetrahydrothiopyran-4-ylmethyl)benzamide] yielded an IC90 of 890 nM. In the case of `CCc1cc(Nc2nccn3c(-c4ccc(OC)c(F)c4F)cnc23)ccc1C(=O)N[C@@H](C)CNC(=O)[C@@H](N)CCCNC(=N)N` [Example 342, N-[(2S)-1-[[(2S)-2-amino-5-carbamimidamidopentanoyl]amino]propan-2-yl]-4-[[3-(2,3-difluoro-4-methoxyphenyl)imidazo[1,2-a]pyrazin-8-yl]amino]-2-ethylbenzamide; formic acid], the IC90 is reported as 730 nM. In the case of `CCc1cc(Nc2nccn3c(-c4ccc(OCC#N)c(F)c4F)cnc23)ccc1C(=O)NCCNC(=O)[C@@H](N)CCN` [Example 144, 4-[[3-[4-(cyanomethoxy)-2,3-difluoro-phenyl]imidazo[1,2-a]pyrazin-8-yl]amino]-N-[2-[[(2S)-2,4-diaminobutanoyl]amino]ethyl]-2-ethyl-benzamide formate], the IC90 is reported as 90 nM.
